According to patent US12371454B2, “Cyclic peptide compound having Kras inhibitory action” (priority 2019, dated 2025):
Starred links: 1 amine or outer side, 2 acyl side, 3 side chain; linkers in the order of their positions; H or OH if unused. Positions of bridges follow the written chain, without caps; N, C: chain ends. Non-standard residues stand in square brackets, D forms with d. Residues, ends and D or L forms follow the SMILES beside them. *: point of attachment. hPhe(3,5-F2-4-CF3) = N[C@@H](CCc1cc(F)c(C(F)(F)F)c(F)c1)C(=O)O; hPhe(3-Cl-4-CF3) = N[C@@H](CCc1ccc(C(F)(F)F)c(Cl)c1)C(=O)O; NMePhe(4-CF3) = CN[C@@H](Cc1ccc(C(F)(F)F)cc1)C(=O)O; NMePhe(3,4-F2) = CN[C@@H](Cc1ccc(F)c(F)c1)C(=O)O; NMePhe(3-Br) = CN[C@@H](Cc1cccc(Br)c1)C(=O)O; NMePhe(4-Br) = CN[C@@H](Cc1ccc(Br)cc1)C(=O)O; NMePhe(4-Me) = CN[C@@H](Cc1ccc(C)cc1)C(=O)O; X11 = CN([C@@H](CCc1cccnc1)C(=O)[*:2])[*:1]; NMePhe(4-F) = CN[C@@H](Cc1ccc(F)cc1)C(=O)O; NMePhe(4-I) = CN[C@@H](Cc1ccc(I)cc1)C(=O)O; NMePhe(2-Me) = CN[C@@H](Cc1ccccc1C)C(=O)O; Abu(4,4,4-F3) = N[C@@H](CC(F)(F)F)C(=O)O; NMeGly(cPent) = CN[C@H](C(=O)O)C1CCCC1; NMeCha = CN[C@@H](CC1CCCCC1)C(=O)O; NMeChg = CN[C@H](C(=O)O)C1CCCCC1; NMeI = CC[C@H](C)[C@H](NC)C(=O)O; dNMeF = CN[C@H](Cc1ccccc1)C(=O)O; Gly(cPr) = N[C@H](C(=O)O)C1CC1; NMeD = CN[C@@H](CC(=O)O)C(=O)O; NMeL = CN[C@@H](CC(C)C)C(=O)O; NMeV = CN[C@H](C(=O)O)C(C)C; Morpholide = C1CN(*)CCO1; NMeA = CN[C@@H](C)C(=O)O; Piperidide = C1CCN(*)CC1; Pyrrolidide = C1CCN(*)C1; Ac5c = NC1(C(=O)O)CCCC1; Aze = O=C(O)[C@@H]1CCN1; Ac4c = NC1(C(=O)O)CCC1; Sar = CNCC(=O)O

Biological target: T1, Kras and SOS1 (biotin-tagged human Kras loaded with GDP, His-tagged human SOS1) (Homo sapiens, UniProt P01116, G12D)
T1 construct: made in house; host or cells: E. coli (stated for Kras only)
Experiment: Protein-protein interaction inhibition between Kras and SOS1 (KrasGl2D-SOS PPI) using AlphaScreen
Type: binding
Settings: AlphaScreen; biotin-tagged human Kras loaded with GDP, His-tagged human SOS1; read-out: KRAS G12D-SOS PPI IC50
How it was run: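 Read-out is acceptor-bead light at 520-620 nm, arising when 680 nm-irradiated nickel donor beads pass singlet oxygen to streptavidin acceptors. The bead pair links His-tagged SOS1 with biotin-tagged, GDP-bound Kras from E. coli.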

T1 sequence (P01116 1-188 isoform P01116-2 G12D): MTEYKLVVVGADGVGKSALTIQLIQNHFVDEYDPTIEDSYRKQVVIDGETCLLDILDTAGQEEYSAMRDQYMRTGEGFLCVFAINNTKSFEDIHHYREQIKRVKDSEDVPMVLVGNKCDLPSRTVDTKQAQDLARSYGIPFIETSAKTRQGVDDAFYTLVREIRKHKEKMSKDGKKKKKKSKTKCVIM

Row | SMILES | IC50 [nM]
1 | CC(C)C[C@H]1C(=O)N[C@@H](C2CC2)C(=O)N(C)CC(=O)N(C)CC(=O)N(C)[C@@H](CC2CCCCC2)C(=O)N(C)CC(=O)N[C@@H](CCc2ccc(C(F)(F)F)c(Cl)c2)C(=O)N2CCC[C@H]2C(=O)NC2(CCCC2)C(=O)N(C)[C@@H](C2CCCCC2)C(=O)N(C)[C@H](C(=O)N2CCCCC2)CC(=O)N1C [Compound 1862] ([NMeL][Gly(cPr)][Sar][Sar][NMeCha][Sar][hPhe(3-Cl-4-CF3)]P[Ac5c][NMeChg][NMeD]-Piperidide; lactam N-11) | 2
2 | CC(C)C[C@H]1C(=O)N[C@@H](CC(F)(F)F)C(=O)N(C)[C@@H](C)C(=O)N2CC[C@H]2C(=O)N(C)[C@@H](CC2CCCCC2)C(=O)N(C)CC(=O)N[C@@H](CCc2ccc(C(F)(F)F)c(Cl)c2)C(=O)N2CCC[C@H]2C(=O)NC2(CCCC2)C(=O)N(C)[C@@H](C(C)C)C(=O)N(C)[C@H](C(=O)N2CCCCC2)CC(=O)N1C [Compound 1864] ([NMeL][Abu(4,4,4-F3)][NMeA][Aze][NMeCha][Sar][hPhe(3-Cl-4-CF3)]P[Ac5c][NMeV][NMeD]-Piperidide; lactam N-11) | 48
3 | CC[C@H](C)[C@@H]1NC(=O)[C@H](CC(C)C)N(C)C(=O)C[C@@H](C(=O)N(C)C)N(C)C(=O)[C@H]([C@@H](C)CC)N(C)C(=O)C2(CCCC2)NC(=O)[C@@H]2CCCN2C(=O)[C@H](CCc2ccc(C(F)(F)F)c(Cl)c2)NC(=O)CN(C)C(=O)[C@H](CC2CCCCC2)N(C)C(=O)CN(C)C(=O)CN(C)C1=O [Compound 1865] ([NMeL]I[Sar][Sar][NMeCha][Sar][hPhe(3-Cl-4-CF3)]P[Ac5c][NMeI][NMeD]-NMe2; lactam N-11) | 0.43
4 | CC[C@H](C)[C@@H]1NC(=O)[C@H](CC(C)C)N(C)C(=O)C[C@@H](C(=O)N(C)C)N(C)C(=O)[C@H]([C@@H](C)CC)N(C)C(=O)C2(CCCC2)NC(=O)[C@H](Cc2cccc(Br)c2)N(C)C(=O)[C@H](CCc2ccc(C(F)(F)F)c(Cl)c2)NC(=O)CN(C)C(=O)[C@H](Cc2ccc(C)cc2)N(C)C(=O)[C@@H]2CCN2C(=O)[C@H](C)N(C)C1=O [Compound 1873] ([NMeL]I[NMeA][Aze][NMePhe(4-Me)][Sar][hPhe(3-Cl-4-CF3)][NMePhe(3-Br)][Ac5c][NMeI][NMeD]-NMe2; lactam N-11) | 33
5 | CC[C@H](C)[C@@H]1NC(=O)[C@H](CC(C)C)N(C)C(=O)C[C@@H](C(=O)N2CCOCC2)N(C)C(=O)[C@H](C2CCCCC2)N(C)C(=O)C2(CCC2)NC(=O)[C@@H]2CCCN2C(=O)[C@H](CCc2ccc(C(F)(F)F)c(Cl)c2)NC(=O)CN(C)C(=O)[C@H](CC2CCCCC2)N(C)C(=O)CN(C)C(=O)CN(C)C1=O [Compound 1875] ([NMeL]I[Sar][Sar][NMeCha][Sar][hPhe(3-Cl-4-CF3)]P[Ac4c][NMeChg][NMeD]-Morpholide; lactam N-11) | 0.42
6 | CC[C@H](C)[C@@H]1NC(=O)[C@H](CC(C)C)N(C)C(=O)C[C@@H](C(=O)N2CCCCC2)N(C)C(=O)[C@H]([C@@H](C)CC)N(C)C(=O)C2(CCCC2)NC(=O)[C@H](Cc2ccc(F)cc2)N(C)C(=O)[C@H](CCc2ccc(C(F)(F)F)c(Cl)c2)NC(=O)CN(C)C(=O)[C@H](Cc2ccc(C)cc2)N(C)C(=O)[C@@H]2CCN2C(=O)[C@H](C)N(C)C1=O [Compound 1876] ([NMeL]I[NMeA][Aze][NMePhe(4-Me)][Sar][hPhe(3-Cl-4-CF3)][NMePhe(4-F)][Ac5c][NMeI][NMeD]-Piperidide; lactam N-11) | 98
7 | CC[C@H](C)[C@@H]1NC(=O)[C@H](C)N(C)C(=O)C[C@@H](C(=O)N(C)C)N(C)C(=O)[C@H]([C@@H](C)CC)N(C)C(=O)C2(CCCC2)NC(=O)[C@H](Cc2ccc(F)c(F)c2)N(C)C(=O)[C@H](CCc2ccc(C(F)(F)F)c(Cl)c2)NC(=O)CN(C)C(=O)[C@H](Cc2ccc(C)cc2)N(C)C(=O)[C@@H]2CCN2C(=O)[C@H](C)N(C)C1=O [Compound 1878] ([NMeA]I[NMeA][Aze][NMePhe(4-Me)][Sar][hPhe(3-Cl-4-CF3)][NMePhe(3,4-F2)][Ac5c][NMeI][NMeD]-NMe2; lactam N-11) | 8.8
8 | CC[C@H](C)[C@@H]1NC(=O)[C@H](CC(C)C)N(C)C(=O)C[C@@H](C(=O)N(C)C)N(C)C(=O)[C@H](C2CCCC2)N(C)C(=O)C2(CCCC2)NC(=O)[C@H](Cc2ccccc2C)N(C)C(=O)[C@H](CCc2ccc(C(F)(F)F)c(Cl)c2)NC(=O)CN(C)C(=O)[C@H](CC2CCCCC2)N(C)C(=O)[C@@H]2CCN2C(=O)[C@H](C)N(C)C1=O [Compound 1880] ([NMeL]I[NMeA][Aze][NMeCha][Sar][hPhe(3-Cl-4-CF3)][NMePhe(2-Me)][Ac5c][NMeGly(cPent)][NMeD]-NMe2; lactam N-11) | 13
9 | CC[C@H](C)[C@@H]1NC(=O)[C@H](CC(C)C)N(C)C(=O)C[C@@H](C(=O)N(C)C)N(C)C(=O)[C@H]([C@@H](C)CC)N(C)C(=O)C2(CCCC2)NC(=O)[C@H](Cc2ccc(F)cc2)N(C)C(=O)[C@H](CCc2cc(F)c(C(F)(F)F)c(F)c2)NC(=O)CN(C)C(=O)[C@H](Cc2ccc(C(F)(F)F)cc2)N(C)C(=O)[C@@H]2CCN2C(=O)[C@H](C)N(C)C1=O [Compound 1882] ([NMeL]I[NMeA][Aze][NMePhe(4-CF3)][Sar][hPhe(3,5-F2-4-CF3)][NMePhe(4-F)][Ac5c][NMeI][NMeD]-NMe2; lactam N-11) | 9.7
10 | CC[C@H](C)[C@@H]1NC(=O)[C@H](C)N(C)C(=O)C[C@@H](C(=O)N2CCCCC2)N(C)C(=O)[C@H]([C@@H](C)CC)N(C)C(=O)C2(CCCC2)NC(=O)[C@H](Cc2ccc(F)cc2)N(C)C(=O)[C@H](CCc2ccc(C(F)(F)F)c(Cl)c2)NC(=O)CN(C)C(=O)[C@H](Cc2ccc(C)cc2)N(C)C(=O)[C@@H]2CCN2C(=O)[C@H](C)N(C)C1=O [Compound 1885] ([NMeA]I[NMeA][Aze][NMePhe(4-Me)][Sar][hPhe(3-Cl-4-CF3)][NMePhe(4-F)][Ac5c][NMeI][NMeD]-Piperidide; lactam N-11) | 32
11 | CC[C@H](C)[C@@H]1NC(=O)[C@H](CC(C)C)N(C)C(=O)C[C@@H](C(=O)N(C)C)N(C)C(=O)[C@H]([C@@H](C)CC)N(C)C(=O)C2(CCCC2)NC(=O)[C@H](CCc2cccnc2)N(C)C(=O)[C@H](CCc2ccc(C(F)(F)F)c(Cl)c2)NC(=O)CN(C)C(=O)[C@H](Cc2ccc(C)cc2)N(C)C(=O)[C@@H]2CCN2C(=O)[C@H](C)N(C)C1=O [Compound 1886] ([NMeL]I[NMeA][Aze][NMePhe(4-Me)][Sar][hPhe(3-Cl-4-CF3)][X11][Ac5c][NMeI][NMeD]-NMe2; lactam N-11) | 0.93
12 | CC[C@H](C)[C@@H]1NC(=O)[C@H](C)N(C)C(=O)C[C@@H](C(=O)N2CCCCC2)N(C)C(=O)[C@H]([C@@H](C)CC)N(C)C(=O)C2(CCCC2)NC(=O)[C@@H](Cc2ccccc2)N(C)C(=O)[C@H](CCc2cc(F)c(C(F)(F)F)c(F)c2)NC(=O)CN(C)C(=O)[C@H](Cc2ccc(C)cc2)N(C)C(=O)[C@@H]2CCN2C(=O)[C@H](C)N(C)C1=O [Compound 1887] ([NMeA]I[NMeA][Aze][NMePhe(4-Me)][Sar][hPhe(3,5-F2-4-CF3)][dNMeF][Ac5c][NMeI][NMeD]-Piperidide; lactam N-11) | 180
13 | CC[C@H](C)[C@@H]1NC(=O)[C@H](CC(C)C)N(C)C(=O)C[C@@H](C(=O)N(C)C)N(C)C(=O)[C@H]([C@@H](C)CC)N(C)C(=O)C2(CCCC2)NC(=O)[C@H](Cc2ccc(I)cc2)N(C)C(=O)[C@H](CCc2ccc(C(F)(F)F)c(Cl)c2)NC(=O)CN(C)C(=O)[C@H](Cc2ccc(C)cc2)N(C)C(=O)[C@@H]2CCN2C(=O)[C@H](C)N(C)C1=O [Compound 1888] ([NMeL]I[NMeA][Aze][NMePhe(4-Me)][Sar][hPhe(3-Cl-4-CF3)][NMePhe(4-I)][Ac5c][NMeI][NMeD]-NMe2; lactam N-11) | 53
14 | CC[C@H](C)[C@@H]1NC(=O)[C@H](C)N(C)C(=O)C[C@@H](C(=O)N(C)C)N(C)C(=O)[C@H]([C@@H](C)CC)N(C)C(=O)C2(CCCC2)NC(=O)[C@@H](Cc2ccccc2)N(C)C(=O)[C@H](CCc2ccc(C(F)(F)F)c(Cl)c2)NC(=O)CN(C)C(=O)[C@H](Cc2ccc(C)cc2)N(C)C(=O)[C@@H]2CCN2C(=O)[C@H](C)N(C)C1=O [Compound 1889] ([NMeA]I[NMeA][Aze][NMePhe(4-Me)][Sar][hPhe(3-Cl-4-CF3)][dNMeF][Ac5c][NMeI][NMeD]-NMe2; lactam N-11) | 98
15 | CC[C@H](C)[C@@H]1NC(=O)[C@H](C)N(C)C(=O)C[C@@H](C(=O)N(C)C)N(C)C(=O)[C@H]([C@@H](C)CC)N(C)C(=O)C2(CCCC2)NC(=O)[C@H](Cc2ccc(Br)cc2)N(C)C(=O)[C@H](CCc2ccc(C(F)(F)F)c(Cl)c2)NC(=O)CN(C)C(=O)[C@H](Cc2ccc(C)cc2)N(C)C(=O)[C@@H]2CCN2C(=O)[C@H](C)N(C)C1=O [Compound 1893] ([NMeA]I[NMeA][Aze][NMePhe(4-Me)][Sar][hPhe(3-Cl-4-CF3)][NMePhe(4-Br)][Ac5c][NMeI][NMeD]-NMe2; lactam N-11) | 14
16 | CC[C@H](C)[C@@H]1NC(=O)[C@H](CC(C)C)N(C)C(=O)C[C@@H](C(=O)N2CCCC2)N(C)C(=O)[C@H](C2CCCCC2)N(C)C(=O)C2(CCC2)NC(=O)[C@@H]2CCCN2C(=O)[C@H](CCc2ccc(C(F)(F)F)c(Cl)c2)NC(=O)CN(C)C(=O)[C@H](CC2CCCCC2)N(C)C(=O)CN(C)C(=O)CN(C)C1=O [Compound 1894] ([NMeL]I[Sar][Sar][NMeCha][Sar][hPhe(3-Cl-4-CF3)]P[Ac4c][NMeChg][NMeD]-Pyrrolidide; lactam N-11) | 0.55
17 | CC[C@H](C)[C@@H]1NC(=O)[C@H](CC(C)C)N(C)C(=O)C[C@@H](C(=O)N2CCCCC2)N(C)C(=O)[C@H]([C@@H](C)CC)N(C)C(=O)C2(CCCC2)NC(=O)[C@@H](Cc2ccccc2)N(C)C(=O)[C@H](CCc2cc(F)c(C(F)(F)F)c(F)c2)NC(=O)CN(C)C(=O)[C@H](Cc2ccc(C)cc2)N(C)C(=O)[C@@H]2CCN2C(=O)[C@H](C)N(C)C1=O [Compound 1895] ([NMeL]I[NMeA][Aze][NMePhe(4-Me)][Sar][hPhe(3,5-F2-4-CF3)][dNMeF][Ac5c][NMeI][NMeD]-Piperidide; lactam N-11) | 360
